# Measurements reported in patent publication US8952024B2, “Herbicidal pyrimidone derivatives” (E I du Pont de Nemours and Company, priority 2009, dated 2015).
# Columns and labels:
# Assay type in all cases: in vivo
# [1] = test system: morningglory (Ipomoea coccinea); test: Test B pre-/postemergence plant response; settings: Ipomoea, post-emergence; Postemergence, 250 g ai/ha; scale 0 to 100 (0 no effect, 100 complete control); read-out: Plant response rating, Morningglory
# Source text: (§1) Seeds of plant species selected from blackgrass (Alopecurus myosuroides), downy bromegrass (Bromus tectorum), green foxtail (Setaria viridis), Italian ryegrass (Lolium multiflorum), wheat (Triticum aestivum), wild oat (Avena fatua), deadnettle (henbit deadnettle, Lamium amplexicaule), galium (catchweed bedstraw, Galium aparine), bermudagrass (Cynodon dactylon), Surinam grass (Brachiaria decumbens), cocklebur (Xanthium strumarium), corn (Zea mays), large crabgrass (Digitaria sanguinalis), woolly cupgrass (Eriochloa villosa), giant foxtail (Setaria faberii), goosegrass (Eleusine indica), johnsongrass (Sorghum halepense), kochia (Kochia scoparia), lambsquarters (Chenopodium album), morningglory (Ipomoea coccinea), nightshade (eastern black nightshade, Solanum ptycanthum), yellow nutsedge (Cyperus esculentus), pigweed (Amaranthus retroflexus), ragweed (common ragweed, Ambrosia elatior), Russian thistle (Salsola kali), soybean (Glycine max), sunflower (common oilseed sunflower, Helianthus annuus) and velvetleaf (Abutilon theophrasti) were planted into a blend of loam soil and sand and treated preemergence with test compounds formulated in a non-phytotoxic solvent mixture which included a surfactant.
# (§2) At the same time, plants selected from these crop and weed species and also winter barley (Hordeum vulgare), canarygrass (Phalaris minor), chickweed (Stellaria media) and windgrass (Apera spica-venti) were planted in pots containing Redi-Earth® planting medium (Scotts Company, 14111 Scottslawn Road, Marysville, Ohio 43041) comprising spaghnum peat moss, vermiculite, wetting agent and starter nutrients and treated with postemergence applications of some of the test chemicals formulated in the same manner. Plants ranged in height from 2 to 18 cm (1- to 4-leaf stage) for postemergence treatments.
# (§3) Treated plants and controls were maintained in a greenhouse for 13 to 15 days, after which time all treated plants were visually evaluated and compared to controls. Plant response ratings, summarized in Table B, are based on a scale of 0 to 100 where 0 is no effect and 100 is complete control. A dash (-) response means no test result.
# [2] = test system: ragweed (common ragweed, Ambrosia elatior); test: Test B pre-/postemergence plant response
# Source text: as §1, §2, §3
# soybean (Glycine max) = test: Test B pre-/postemergence plant response
# Source text: as §1, §2, §3
# [3] = test system: velvetleaf (Abutilon theophrasti); test: Test B pre-/postemergence plant response
# Source text: as §1, §2, §3
# [4] = test system: wheat (Triticum aestivum); test: Test B pre-/postemergence plant response
# Source text: as §1, §2, §3
# wild oat (Avena fatua) = test: Test B pre-/postemergence plant response
# Source text: as §1, §2, §3
# [5] = test system: yellow nutsedge (Cyperus esculentus); test: Test B pre-/postemergence plant response
# Source text: as §1, §2, §3
# [6] = test system: canarygrass (Phalaris minor); test: Test B postemergence plant response
# In short: (§4)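 Visual ratings from 0 (no effect) to 100 (complete control), made against controls 13–15 days after treatment, kept in a greenhouse. Compounds were applied postemergence to potted plants at the 1- to 4-leaf stage (2–18 cm).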
# [7] = test system: chickweed (Stellaria media); test: Test B postemergence plant response
# In short: as §4
# [8] = test system: windgrass (Apera spica-venti); test: Test B postemergence plant response
# In short: as §4
# [9] = 62 g ai/ha, postemergence, 0 is no effect, 100 is complete control, 13 to 15 days
smiles,measurement,setting,value
"COCCn1c(-c2ccsc2)ncc(C(=O)C2=C(O)CCCC2=O)c1=O [Compound 97, 5-[(2-hydroxy-6-oxo-1-cyclohexen-1-yl)carbonyl]-3-(2-methoxyethyl)-2-(3-thienyl)-4(3H)-pyrimidinone]",pest or weed control at 250 g/ha,[1],100%
same,Ragweed plant response rating (0 to 100 scale),[2]; [9],98
same,pest or weed control at 31 g/ha,"[2]; Ambrosia artemisiifolia, post-emergence, 360 h, 31 g ai/ha, postemergence, scale 0 to 100, 0 is no effect, 100 is complete control, read-out: Plant response rating, Ragweed",85%
same,pest or weed control at 250 g/ha,"[2]; Ambrosia artemisiifolia, post-emergence, 360 h, Postemergence, 250 g ai/ha, scale 0 to 100 (0 no effect, 100 complete control), read-out: Plant response rating, Ragweed",100%
same,Soybean plant response rating (0 to 100 scale),soybean (Glycine max); [9],80
same,plant injury at 31 g/ha,"soybean (Glycine max); Glycine max, post-emergence, 31 g ai/ha, postemergence, scale 0 to 100, 0 is no effect, 100 is complete control, read-out: Plant response rating, Soybean",70%
same,plant injury at 250 g/ha,"soybean (Glycine max); Glycine max, post-emergence, Postemergence, 250 g ai/ha, scale 0 to 100 (0 no effect, 100 complete control), read-out: Plant response rating, Soybean",100%
same,Velvetleaf plant response rating (0 to 100 scale),[3]; [9],100
same,pest or weed control at 31 g/ha,"[3]; Abutilon theophrasti, post-emergence, 360 h, 31 g ai/ha, postemergence, scale 0 to 100, 0 is no effect, 100 is complete control, read-out: Plant response rating, Velvetleaf",100%
same,pest or weed control at 250 g/ha,"[3]; Abutilon theophrasti, post-emergence, 360 h, Postemergence, 250 g ai/ha, scale 0 to 100 (0 no effect, 100 complete control), read-out: Plant response rating, Velvetleaf",100%
same,Wheat plant response rating (0 to 100 scale),[4]; [9],0
same,plant injury at 31 g/ha,"[4]; Triticum aestivum, post-emergence, 31 g ai/ha, postemergence, scale 0 to 100, 0 is no effect, 100 is complete control, read-out: Plant response rating, Wheat",0%
same,plant injury at 250 g/ha,"[4]; Triticum aestivum, post-emergence, Postemergence, 250 g ai/ha, scale 0 to 100 (0 no effect, 100 complete control), read-out: Plant response rating, Wheat",5%
same,"Oat, Wild plant response rating (0 to 100 scale)",wild oat (Avena fatua); [9],5
same,pest or weed control at 31 g/ha,"wild oat (Avena fatua); Avena fatua, post-emergence, 31 g ai/ha, postemergence, scale 0 to 100, 0 is no effect, 100 is complete control, read-out: Plant response rating, Oat, Wild",0%
same,pest or weed control at 250 g/ha,"wild oat (Avena fatua); Avena fatua, post-emergence, Postemergence, 250 g ai/ha, scale 0 to 100 (0 no effect, 100 complete control), read-out: Plant response rating, Oat, Wild",10%
same,"Nutsedge, Yellow plant response rating (0 to 100 scale)",[5]; [9],75
same,pest or weed control at 31 g/ha,"[5]; Cyperus, post-emergence, 31 g ai/ha, postemergence, scale 0 to 100, 0 is no effect, 100 is complete control, read-out: Plant response rating, Nutsedge, Yellow",75%
same,pest or weed control at 250 g/ha,"[5]; Cyperus, post-emergence, Postemergence, 250 g ai/ha, scale 0 to 100 (0 no effect, 100 complete control), read-out: Plant response rating, Nutsedge, Yellow",80%
same,Canarygrass plant response rating (0 to 100 scale),[6]; [9],10
same,pest or weed control at 31 g/ha,"[6]; Phalaris minor, post-emergence, 360 h, 31 g ai/ha, postemergence, scale 0 to 100, 0 is no effect, 100 is complete control, read-out: Plant response rating, Canarygrass",0%
same,pest or weed control at 125 g/ha,"[6]; Phalaris minor, post-emergence, 360 h, Postemergence, 125 g ai/ha, visual rating after 13 to 15 days, scale 0 (no effect) to 100 (complete control)",10%
same,pest or weed control at 250 g/ha,"[6]; Phalaris minor, post-emergence, 360 h, Postemergence, 250 g ai/ha, scale 0 to 100 (0 no effect, 100 complete control), read-out: Plant response rating, Canarygrass",30%
same,Chickweed plant response rating (0 to 100 scale),[7]; [9],100
same,pest or weed control at 31 g/ha,"[7]; Stellaria media, post-emergence, 360 h, 31 g ai/ha, postemergence, scale 0 to 100, 0 is no effect, 100 is complete control, read-out: Plant response rating, Chickweed",95%
same,pest or weed control at 125 g/ha,"[7]; Stellaria media, post-emergence, 360 h, Postemergence, 125 g ai/ha, visual rating after 13 to 15 days, scale 0 (no effect) to 100 (complete control)",100%
same,pest or weed control at 250 g/ha,"[7]; Stellaria media, post-emergence, 360 h, Postemergence, 250 g ai/ha, scale 0 to 100 (0 no effect, 100 complete control), read-out: Plant response rating, Chickweed",100%
same,Windgrass plant response rating (0 to 100 scale),[8]; [9],50
same,pest or weed control at 31 g/ha,"[8]; Apera spica-venti, post-emergence, 360 h, 31 g ai/ha, postemergence, scale 0 to 100, 0 is no effect, 100 is complete control, read-out: Plant response rating, Windgrass",5%
same,pest or weed control at 250 g/ha,"[8]; Apera spica-venti, post-emergence, 360 h, Postemergence, 250 g ai/ha, scale 0 to 100 (0 no effect, 100 complete control), read-out: Plant response rating, Windgrass",85%
